What was measured:
[1] = 1H NMR detection of the interaction of substance 42 with creatine; type: binding; conditions: CD3OD solution; creatine added to the test solution
Description: The ability of substance 42 to detect creatine was evaluated by ^1H NMR spectroscopy. […] (Bell, T. W. et al. 36th National Organic Symposium, U. of Wisconsin, Madison, Wis., Jun. 13, 1999-Jun. 17, 1999). [drawing 32] [drawing 33]

[2] = system: animal models of Huntington's disease; conditions: oral supplementation; cited from earlier work

Question: With `O=C(O)c1ccc2c(n1)-c1nc3nc4c(cc3cc1CC2)CCc1ccc(C(=O)O)nc1-4` [Substance 42] as the compound, how does the “ability to detect creatine (interaction with creatine by 1H NMR)” value [1] read?
Answer: interaction of creatine with substance 42 was detected

Question: Which “protection from malonate lesions” value [2] does the source give for `N=C1NCCN1CC(=O)O` [cyclocreatine, 1-carboxymethyl-2-iminoimidazolidine] here?
Answer: protect the animals from malonate lesions

— patent publication US6566086B1, “Diagnostic kit for detecting creatine levels” (FAL Diagnostics, priority 2000, dated 2003)
